Target: T1, Dual specificity protein kinase TTK (Homo sapiens, UniProt P33981)
T1 sequence (P33981 whole entry): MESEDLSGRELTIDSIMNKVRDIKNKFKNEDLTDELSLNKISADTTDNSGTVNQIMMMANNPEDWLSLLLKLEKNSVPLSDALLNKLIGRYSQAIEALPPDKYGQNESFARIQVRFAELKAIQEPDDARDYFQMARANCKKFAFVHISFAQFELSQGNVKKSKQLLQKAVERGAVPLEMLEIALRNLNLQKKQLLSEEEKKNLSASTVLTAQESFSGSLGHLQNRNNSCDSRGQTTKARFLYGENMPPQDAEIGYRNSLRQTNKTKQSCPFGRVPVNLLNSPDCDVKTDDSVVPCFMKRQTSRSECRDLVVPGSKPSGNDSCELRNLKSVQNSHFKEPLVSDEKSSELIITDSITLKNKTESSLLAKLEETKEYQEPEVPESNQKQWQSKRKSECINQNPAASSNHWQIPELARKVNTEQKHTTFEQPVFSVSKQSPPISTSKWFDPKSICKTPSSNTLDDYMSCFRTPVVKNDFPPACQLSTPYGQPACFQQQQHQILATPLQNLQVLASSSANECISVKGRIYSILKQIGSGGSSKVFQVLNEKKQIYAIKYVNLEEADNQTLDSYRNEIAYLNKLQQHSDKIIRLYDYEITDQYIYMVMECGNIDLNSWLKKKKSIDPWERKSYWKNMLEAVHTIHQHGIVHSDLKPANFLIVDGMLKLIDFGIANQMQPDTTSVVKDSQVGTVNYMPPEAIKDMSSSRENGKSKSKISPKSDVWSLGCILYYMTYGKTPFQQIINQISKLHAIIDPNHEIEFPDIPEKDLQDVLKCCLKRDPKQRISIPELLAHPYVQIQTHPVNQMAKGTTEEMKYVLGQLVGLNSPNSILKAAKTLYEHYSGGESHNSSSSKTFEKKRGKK
Assay: Kinase Assay: For the assay 50 nl of a 100-fold concentrated solution of the test compound in DMSO was pipetted into a black low volume 384 well microtiter plate (Greiner Bio-One, Frickenhausen, Germany), 2 ul of a solution of Mps-1 in assay buffer [0.1 mM sodium-ortho-vanadate, 10 mM MgCl2, 2 mM DTT, 25 mM Hepes pH 7.7, 0.05% BSA, 0.001% Pluronic F-127] were added and the mixture was incubated for 15 min at 22° C. to allow pre-binding of the test compounds to Mps-1 before the start of the kinase reaction. Then the kinase reaction was started by the addition of 3 ul of a solution of 16.7 adenosine-tri-phosphate (ATP, 16.7 uM=>final conc. in the 5 ul assay volume is 10 uM) and peptide substrate (1.67 uM=>final conc. in the 5 ul assay volume is 1 uM) in assay buffer and the resulting mixture was incubated for a reaction time of 60 min at 22° C. The concentration of Mps-1 in the assay was adjusted to the activity of the enzyme lot and was chosen appropriate to have the assay in the linear range, typical enzyme concentrations were in the range of about 1 nM (final conc. in the 5 ul assay volume). […]

IC50	Structure (SMILES)
151 nM	CSc1nc(C#CCO)cn2c(-c3ccc(-c4cnc(C5CC5)[nH]4)cc3)cnc12
25.7 nM	CSc1nc(-c2ccccc2)cn2c(-c3ccc(C(=O)NC4CC4)cc3)cnc12
